In patent publication US20240261267A1, “METHODS FOR TREATING MULTIPLE SCLEROSIS” (Vanda Pharmaceuticals Inc., priority 2021, published 2024):

Tested on: primary mouse OPCs
Experiment: differentiation assay, immunocytochemical staining for O4 and MBP
Assay type: cell-based
Details: for MBP expression / O4 expression: normalized to DAPI and negative control
Protocol: The effects of ponesimod, a selective S1P1 receptor agonist, and A971432, a selective S1P5 receptor agonist, on oligodendrocyte precursor cell (OPC) migration and differentiation were evaluated. Nine concentrations were tested (logarithmic dilutions ranging from 0.3 nM to 3000 nM, n=6 per concentration). Fingolimod phosphate (P-FTY720, 3000 nM, n=6) was included as a positive control, 0.1% DMSO was included (min.one/plate) as a negative control. Primary mouse OPCs were harvested on postnatal day 0 or 1 and mixed glia cultures were maintained for 14 days. Primary OPCs were then purified using the shake-off method, and used for either a migration assay, or a differentiation assay, as detailed below. To harvest primary mouse OPCs, cortices are isolated from mouse pups on postnatal day 0 or 1 and placed in ice-cold Dulbecco's Modified Eagle Medium (DMEM) (Sigma Aldrich, Overijse, BE). The cortices are homogenized and centrifuged for 5 minutes at 300 G. The supernatant is removed, and a papain solution is added for 30 minutes (125 uL DMEM solution per brain containing 20 units/ml papain and 40 μg/ml DNase, at 37 degrees). Digestion is inactivated by adding 9 ml cold DMEM. The solution is then centrifuged for 5 minutes at […]. The supernatant is carefully removed, and the pellet is resuspended in 2-5 ml culture medium (DMEM with 10% fetal calf serum (Biowest, Nuaillé, FR) and 1% pen/strep (Sigma Aldrich, Overijse, BE)). […] Cell suspension is divided over PLL (Sigma Aldrich, Overijse, BE)-coated flasks (2 brains per flask) and DMEM is added to a final volume of 10 ml. DMEM is replaced on day 4, 7, and 11. On day 7 and 11, insulin (Sigma Aldrich, Overijse, BE) is added to the medium (5μg/ml). On day 14, OPCs are separated from astrocytes by the shake-off method: flasks are placed on a shaker for 45 minutes at 75 rpm (37 degrees). The medium is then aspirated and discarded, and 10 ml fresh culture medium is added. Flasks are then returned to the shaker for 16-18 hours shaking at 280 rpm. Next, the medium is isolated, and this cell suspension is placed in a plastic petri dish and incubated for 25 minutes. The medium, which contains the OPCs, is then collected and centrifuged for 5 minutes at 300 G. Cells are then resuspended in SATO differentiation medium containing 2% horse serum, 2% B-27, 50 U/ml P/S, 2.4 μl/ml transferrin, 1.04 μl/ml L-thyroxine, 1 μl/ml putrescin, 1 μl/ml progesterone, 1 μl/ml TIT, 0.74 μl/ml sodium selenite and 0.5 μl/ml insulin (all from Sigma-Aldrich, Overijse, BE). […] After shake-off, cells are reset for their differentiation status: one hour after plating, cells are treated with platelet-derived growth factor (PDGF, 10 ng/ml, Peprotech EC Ltd, London, UK) and fibroblast growth factor (fgf, 10 ng/ml, Peprotech EC Ltd, London, UK). Twenty-four hours after plating, cells are treated again with fgf (10 ng/ml). 150,000 cells are plated onto glass coverslips in 24-well plates. […] Aspecific binding was blocked for 30 minutes with 1% bovine serum albumin (BSA) in 0.1% PBS-T, followed by incubation with primary antibodies (O4:R&D systems, Minneapolis, USA, MBP:Merck, Overijse, BE) for four hours at room temperature. After three washing steps with PBS (Lonza group, Bornem, BE), cells are incubated with Invitrogen Alexa Fluor 488 (Alexa 488) or Invitrogen Alexa Fluor 555 (Alexa 555) conjugated secondary antibody for one hour (Life technologies, Carlsbad, USA). […] Sigma-Aldrich, Overijse, […]). Coverslips are mounted with Dako mounting medium (Dako, Carpinteria, USA) and analyzed using a fluorescence microscope (Leica DM2000 LED). Images are quantified using Fiji, ImageJ software. Ponesimod and […] effect on primary mouse OPC differentiation using immunocytochemical staining for O4 and MBP, markers of early and late differentiation stages, respectively, was measured. Fingolimod phosphate, which served as a positive control in the migration assay, was included as well, 0.1% DMSO was included as a negative control. […]

| SMILES | MBP expression (1000 nM) | O4 expression (1000 nM) | O4 expression (3000 nM) | OPC differentiation (staining for O4 and MBP) (high concentration 1000 nM) | MBP expression (300 nM) | O4 expression (300 nM) | OPC differentiation (staining for O4 and MBP) (high concentrations 300 nM-1000 nM) |
| --- | --- | --- | --- | --- | --- | --- | --- |
| O=C(O)C1CN(Cc2ccc(OCc3ccc(Cl)c(Cl)c3)cc2)C1 [A97] | significant increase | marginally increased | marginally increased | modest increases |  |  |  |
| CCC/N=C1\S/C(=C\c2ccc(OC[C@H](O)CO)c(Cl)c2)C(=O)N1c1ccccc1C [ponesimod, (R)-5-[3-chloro-4-(2,3-dihydroxy-propoxy)-benz[Z]ylidene]-2-([Z]-propylimino)-3-o-tolyl-thiazolidin-4-one] | did not show significantly increased MBP expression | marginally increased |  |  | significant increase | did not show significantly increased O4 expression | Enhanced OPC differentiation |
